In PubChem BioAssay (NCI):
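A five-concentration, 48-hour dose response in 96-well plates underlies each endpoint, interpolated linearly between surrounding concentrations. The concentration for 50% growth inhibition is given as GI50. The concentration for full growth arrest is given as TGI.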

Legend:
Assay in all cases: growth of human tumour cells (NCI), 48 h
MOLT-4 leukemia = tested on: MOLT-4 leukemia
RXF 393 renal = tested on: RXF 393 renal
MCF7 breast = tested on: MCF7 breast
OVCAR-3 ovarian = tested on: OVCAR-3 ovarian
HT29 colon = tested on: HT29 colon
T-47D breast = tested on: T-47D breast
COLO 205 colon = tested on: COLO 205 colon
SF-268 CNS = tested on: SF-268 CNS
SNB-75 CNS = tested on: SNB-75 CNS
HCT-15 colon = tested on: HCT-15 colon
SNB-19 CNS = tested on: SNB-19 CNS
HOP-62 NSCLC = tested on: HOP-62 NSCLC
PC-3 prostate = tested on: PC-3 prostate
ACHN renal = tested on: ACHN renal
MALME-3M melanoma = tested on: MALME-3M melanoma
HCC-2998 colon = tested on: HCC-2998 colon
IGROV1 ovarian = tested on: IGROV1 ovarian
UACC-62 melanoma = tested on: UACC-62 melanoma
SK-OV-3 ovarian = tested on: SK-OV-3 ovarian
RPMI-8226 leukemia = tested on: RPMI-8226 leukemia
BT-549 breast = tested on: BT-549 breast
KM12 colon = tested on: KM12 colon
786-0 renal = tested on: 786-0 renal
A498 renal = tested on: A498 renal
SF-295 CNS = tested on: SF-295 CNS
SK-MEL-28 melanoma = tested on: SK-MEL-28 melanoma
SK-MEL-2 melanoma = tested on: SK-MEL-2 melanoma
CAKI-1 renal = tested on: CAKI-1 renal
TK-10 renal = tested on: TK-10 renal
MDA-MB-435 = tested on: MDA-MB-435
MDA-MB-231 breast = tested on: MDA-MB-231 breast
EKVX NSCLC = tested on: EKVX NSCLC
HCT-116 colon = tested on: HCT-116 colon
NCI/ADR-RES ovarian = tested on: NCI/ADR-RES ovarian
A549 NSCLC = tested on: A549 NSCLC
SK-MEL-5 melanoma = tested on: SK-MEL-5 melanoma
HL-60(TB) leukemia = tested on: HL-60(TB) leukemia
OVCAR-4 ovarian = tested on: OVCAR-4 ovarian
CCRF-CEM leukemia = tested on: CCRF-CEM leukemia
OVCAR-5 ovarian = tested on: OVCAR-5 ovarian
NCI-H226 lung = tested on: NCI-H226 lung
SW-620 colon = tested on: SW-620 colon
NCI-H460 lung = tested on: NCI-H460 lung
UO-31 renal = tested on: UO-31 renal
UACC-257 melanoma = tested on: UACC-257 melanoma
M14 melanoma = tested on: M14 melanoma
NCI-H23 lung = tested on: NCI-H23 lung
DU-145 prostate = tested on: DU-145 prostate
SN12C renal = tested on: SN12C renal
OVCAR-8 ovarian = tested on: OVCAR-8 ovarian
NCI-H522 lung = tested on: NCI-H522 lung
LOX IMVI melanoma = tested on: LOX IMVI melanoma
SF-539 CNS = tested on: SF-539 CNS
HS 578T breast = tested on: HS 578T breast
HOP-92 NSCLC = tested on: HOP-92 NSCLC

Q: `CCOC(=O)c1nnn(-c2no[n+]([O-])c2-c2ccc(OC)cc2)c1COc1cccc2cccnc12` was tested. Which GI50 (MOLT-4 leukemia) did it give?
A: 1.91 µM

Q: What about the TGI (MOLT-4 leukemia) of the same molecule?
A: 8.47 µM

Q: And the GI50 (RXF 393 renal)?
A: 1.77 µM

Q: What about the TGI (RXF 393 renal) of the same molecule?
A: 4.07 µM

Q: What about the GI50 (MCF7 breast) of the same molecule?
A: 1.97 µM

Q: And the TGI (MCF7 breast)?
A: 17 µM

Q: What about the GI50 (OVCAR-3 ovarian) of the same molecule?
A: 2.8 µM

Q: What about the TGI (OVCAR-3 ovarian) of the same molecule?
A: 7.05 µM

Q: And the GI50 (HT29 colon)?
A: 1.42 µM

Q: And the TGI (HT29 colon)?
A: 3.45 µM

Q: And the GI50 (T-47D breast)?
A: 4.67 µM

Q: And the TGI (T-47D breast)?
A: 28.8 µM

Q: And the GI50 (COLO 205 colon)?
A: 2.33 µM

Q: What about the TGI (COLO 205 colon) of the same molecule?
A: 5.5 µM

Q: What about the GI50 (SF-268 CNS) of the same molecule?
A: 3.03 µM

Q: And the TGI (SF-268 CNS)?
A: 15 µM

Q: What about the GI50 (SNB-75 CNS) of the same molecule?
A: 3.41 µM

Q: And the TGI (SNB-75 CNS)?
A: 14.1 µM

Q: And the GI50 (HCT-15 colon)?
A: 2.38 µM

Q: And the TGI (HCT-15 colon)?
A: 7.03 µM

Q: And the GI50 (SNB-19 CNS)?
A: 3.25 µM

Q: And the TGI (SNB-19 CNS)?
A: 14 µM

Q: And the GI50 (HOP-62 NSCLC)?
A: 4.7 µM

Q: What about the TGI (HOP-62 NSCLC) of the same molecule?
A: 25.9 µM

Q: What about the GI50 (PC-3 prostate) of the same molecule?
A: 3.98 µM

Q: And the TGI (PC-3 prostate)?
A: 16.3 µM

Q: What about the GI50 (ACHN renal) of the same molecule?
A: 1.7 µM

Q: What about the TGI (ACHN renal) of the same molecule?
A: 3.29 µM

Q: What about the GI50 (MALME-3M melanoma) of the same molecule?
A: 2.44 µM

Q: What about the TGI (MALME-3M melanoma) of the same molecule?
A: 6.31 µM

Q: What about the GI50 (HCC-2998 colon) of the same molecule?
A: 3.38 µM

Q: And the TGI (HCC-2998 colon)?
A: 9.98 µM

Q: And the GI50 (IGROV1 ovarian)?
A: 4.27 µM

Q: And the TGI (IGROV1 ovarian)?
A: 16 µM

Q: And the GI50 (UACC-62 melanoma)?
A: 2.38 µM

Q: What about the TGI (UACC-62 melanoma) of the same molecule?
A: 12.8 µM

Q: What about the GI50 (SK-OV-3 ovarian) of the same molecule?
A: 6.12 µM

Q: And the TGI (SK-OV-3 ovarian)?
A: > 100 µM

Q: And the GI50 (RPMI-8226 leukemia)?
A: 0.481 µM

Q: And the TGI (RPMI-8226 leukemia)?
A: 3.38 µM

Q: And the GI50 (BT-549 breast)?
A: 0.657 µM

Q: And the TGI (BT-549 breast)?
A: 3.1 µM

Q: And the GI50 (KM12 colon)?
A: 4.32 µM

Q: What about the TGI (KM12 colon) of the same molecule?
A: 17.8 µM

Q: What about the GI50 (786-0 renal) of the same molecule?
A: 2.29 µM

Q: What about the TGI (786-0 renal) of the same molecule?
A: 5.24 µM

Q: What about the GI50 (A498 renal) of the same molecule?
A: 2.15 µM

Q: What about the TGI (A498 renal) of the same molecule?
A: 8.75 µM

Q: And the GI50 (SF-295 CNS)?
A: 3.09 µM

Q: And the TGI (SF-295 CNS)?
A: 13.7 µM

Q: And the GI50 (SK-MEL-28 melanoma)?
A: 2.22 µM

Q: What about the TGI (SK-MEL-28 melanoma) of the same molecule?
A: 6.15 µM

Q: And the GI50 (SK-MEL-2 melanoma)?
A: 1.98 µM

Q: And the TGI (SK-MEL-2 melanoma)?
A: 9.95 µM

Q: What about the GI50 (CAKI-1 renal) of the same molecule?
A: 2.23 µM

Q: What about the TGI (CAKI-1 renal) of the same molecule?
A: 6.38 µM

Q: And the GI50 (TK-10 renal)?
A: 2.59 µM

Q: And the TGI (TK-10 renal)?
A: 7.35 µM

Q: And the GI50 (MDA-MB-435)?
A: 1.16 µM

Q: What about the TGI (MDA-MB-435) of the same molecule?
A: 5.09 µM

Q: What about the GI50 (MDA-MB-231 breast) of the same molecule?
A: 2.73 µM

Q: And the TGI (MDA-MB-231 breast)?
A: 7.98 µM

Q: What about the GI50 (EKVX NSCLC) of the same molecule?
A: 7.79 µM

Q: What about the TGI (EKVX NSCLC) of the same molecule?
A: 35.2 µM

Q: What about the GI50 (HCT-116 colon) of the same molecule?
A: 0.391 µM

Q: And the TGI (HCT-116 colon)?
A: 3.59 µM

Q: And the GI50 (NCI/ADR-RES ovarian)?
A: 3.05 µM

Q: And the TGI (NCI/ADR-RES ovarian)?
A: 21.9 µM

Q: What about the GI50 (A549 NSCLC) of the same molecule?
A: 3.87 µM

Q: And the TGI (A549 NSCLC)?
A: 16.1 µM

Q: And the GI50 (SK-MEL-5 melanoma)?
A: 3.46 µM

Q: What about the TGI (SK-MEL-5 melanoma) of the same molecule?
A: 12.9 µM

Q: What about the GI50 (HL-60(TB) leukemia) of the same molecule?
A: 1.07 µM

Q: What about the TGI (HL-60(TB) leukemia) of the same molecule?
A: 5.31 µM

Q: What about the GI50 (OVCAR-4 ovarian) of the same molecule?
A: 2.34 µM

Q: What about the TGI (OVCAR-4 ovarian) of the same molecule?
A: 13.3 µM

Q: What about the GI50 (CCRF-CEM leukemia) of the same molecule?
A: 0.318 µM

Q: What about the TGI (CCRF-CEM leukemia) of the same molecule?
A: > 100 µM

Q: What about the GI50 (OVCAR-5 ovarian) of the same molecule?
A: 2.9 µM

Q: What about the TGI (OVCAR-5 ovarian) of the same molecule?
A: 8.21 µM

Q: And the GI50 (NCI-H226 lung)?
A: 6.3 µM

Q: What about the TGI (NCI-H226 lung) of the same molecule?
A: 39.7 µM

Q: And the GI50 (SW-620 colon)?
A: 0.399 µM

Q: And the TGI (SW-620 colon)?
A: 1.8 µM

Q: What about the GI50 (NCI-H460 lung) of the same molecule?
A: 3.29 µM

Q: What about the TGI (NCI-H460 lung) of the same molecule?
A: 11.5 µM

Q: What about the GI50 (UO-31 renal) of the same molecule?
A: 2.45 µM

Q: And the TGI (UO-31 renal)?
A: 8.2 µM

Q: And the TGI (UACC-257 melanoma)?
A: 25.7 µM

Q: What about the GI50 (M14 melanoma) of the same molecule?
A: 1.69 µM

Q: And the TGI (M14 melanoma)?
A: 7.49 µM

Q: And the GI50 (NCI-H23 lung)?
A: 3.79 µM

Q: What about the TGI (NCI-H23 lung) of the same molecule?
A: 17.1 µM

Q: What about the GI50 (DU-145 prostate) of the same molecule?
A: 5.24 µM

Q: What about the TGI (DU-145 prostate) of the same molecule?
A: 17.1 µM

Q: What about the GI50 (SN12C renal) of the same molecule?
A: 0.638 µM

Q: What about the TGI (SN12C renal) of the same molecule?
A: 3.55 µM

Q: And the GI50 (OVCAR-8 ovarian)?
A: 2.23 µM

Q: And the TGI (OVCAR-8 ovarian)?
A: 8.03 µM

Q: What about the GI50 (NCI-H522 lung) of the same molecule?
A: 0.51 µM

Q: And the TGI (NCI-H522 lung)?
A: 2.16 µM

Q: What about the GI50 (LOX IMVI melanoma) of the same molecule?
A: 0.355 µM

Q: And the TGI (LOX IMVI melanoma)?
A: 1.44 µM

Q: And the GI50 (SF-539 CNS)?
A: 2.19 µM

Q: What about the TGI (SF-539 CNS) of the same molecule?
A: 6.13 µM

Q: And the GI50 (HS 578T breast)?
A: 2.76 µM

Q: What about the TGI (HS 578T breast) of the same molecule?
A: 13.3 µM

Q: And the GI50 (HOP-92 NSCLC)?
A: 5.09 µM

Q: And the TGI (HOP-92 NSCLC)?
A: 20.6 µM
